Laboratory results as given in US9938562B2, “Naphthalene derived chromogenic enzyme substrates” (Glycosynth Limited, priority 2013, dated 2018).
Structures can show the parent of a compound that is named as a salt.

What was measured:
Format in all cases: cell-based
[1] = tested on: Pseudomonas aeruginosa NCTC 10662; experiment: Agar plate multi-point inoculation, colour; conditions: Columbia agar, FAC 500 mg/L, substrate 300 mg/L, 37° C. 18 h in air
[2] = tested on: Yersinia enterocolitica NCTC 11176; experiment: Agar plate multi-point inoculation, colour; conditions: Columbia agar, FAC 500 mg/L, substrate 300 mg/L, 37° C. 18 h in air
[3] = tested on: Citrobacter freundii NCTC 9750 or 46262; experiment: Agar plate multi-point inoculation, colour; conditions: Columbia agar, FAC 500 mg/L, substrate 300 mg/L, 37° C. 18 h in air
[4] = tested on: Staphylococcus aureus NCTC 6571; experiment: Agar plate multi-point inoculation, colour; conditions: Columbia agar, FAC 500 mg/L, substrate 300 mg/L, 37° C. 18 h in air
[5] = tested on: Bacillus subtilis NCTC 9372; experiment: Agar plate multi-point inoculation, colour; conditions: Columbia agar, FAC 500 mg/L, substrate 300 mg/L, 37° C. 18 h in air
[6] = tested on: Gram-positive or Gram-negative strains; experiment: Toxicity / growth of microorganisms on substrate agar plates; conditions: substrate 300 mg/L
Description: This compound was tested on agar plates by multi-point inoculation. The plates were made from Columbia agar (Oxoid, Basingstoke, UK) (100 ml) supplemented with ferric ammonium citrate (FAC) (50 mg). After the agar had been autoclaved (121° C.) and cooled to 50° C., a filter sterilized solution of the substrate (8) (30 mg) dissolved in N-methylpyrrolidone (NMP) (200 μL) was added, thus giving a substrate concentration of 300 mg/L. After pouring, the plates were inoculated with a range of microorganisms and incubated at 37° C. for 18 h in air (Table 1).
In the publication of Zincke and Fries, the authors reported that treatment of 1,4,6,7-tetrabromo-DHN (20) with tin (II) chloride led to the removal of the bromines in the 1 and 4 positions. Their work was repeated and the expected 6,7-dibromo-DHN (21) was obtained smoothly and in good yield (68%). 6,7-Dibromo-DHN (21) is isomeric with the 1,4-dibromo compound which had proven unsuccessful as an aglycone for the detection of microorganisms. Notwithstanding this latter fact, we proceeded to evaluate the properties of 6,7-dibromo-DHN […] as an aglycone for artificial chromogenic enzyme substrates. […]

[7] = tested on: Enterococcus faecalis NCTC 775; experiment: Agar plate multi-point inoculation, colour; conditions: Columbia agar, FAC 500 mg/L, substrate 300 mg/L, 37° C. 18 h in air
[8] = tested on: Enterococcus faecium NCTC 7171; experiment: Agar plate multi-point inoculation, colour; conditions: Columbia agar, FAC 500 mg/L, substrate 300 mg/L, 37° C. 18 h in air
[9] = tested on: Morganella morganii 462403 (wild); experiment: Agar plate multi-point inoculation, colour; conditions: Columbia agar, FAC 500 mg/L, substrate 300 mg/L, 37° C. 18 h in air
[10] = tested on: Serratia marcescens NCTC 10211; experiment: Agar plate multi-point inoculation, colour; conditions: Columbia agar, FAC 500 mg/L, substrate 300 mg/L, 37° C. 18 h in air
range of microorganisms = experiment: Agar plate evaluation with a range of microorganisms (hue, diffusion, background); conditions: agar plates with FAC
[11] = tested on: Escherichia coli NCTC 10418; experiment: Agar plate multi-point inoculation, colour; conditions: Columbia agar, FAC 500 mg/L, substrate 300 mg/L, 37° C. 18 h in air
[12] = tested on: Salmonella typhimurium NCTC 74; experiment: Agar plate multi-point inoculation, colour; conditions: Columbia agar, FAC 500 mg/L, substrate 300 mg/L, 37° C. 18 h in air
[13] = tested on: Listeria monocytogenes NCTC 11994; experiment: Agar plate multi-point inoculation, colour; conditions: Columbia agar, FAC 500 mg/L, substrate 300 mg/L, 37° C. 18 h in air
[14] = tested on: Enterobacter cloacae NCTC 11936; experiment: Agar plate multi-point inoculation, colour; conditions: Columbia agar, FAC 500 mg/L, substrate 300 mg/L, 37° C. 18 h in air
[15] = tested on: Staphylococcus aureus (MRSA) NCTC 11939; experiment: Agar plate multi-point inoculation, colour; conditions: Columbia agar, FAC 500 mg/L, substrate 300 mg/L, 37° C. 18 h in air
[16] = tested on: Providencia rettgeri NCTC 7475; experiment: Agar plate multi-point inoculation, colour; conditions: Columbia agar, FAC 500 mg/L, substrate 300 mg/L, 37° C. 18 h in air
[17] = tested on: Staphylococcus epidermidis NCTC 11047; experiment: Agar plate multi-point inoculation, colour; conditions: Columbia agar, FAC 500 mg/L, substrate 300 mg/L, 37° C. 18 h in air
[18] = tested on: Burkholderia cepacia 1222; experiment: Agar plate multi-point inoculation, colour; conditions: Columbia agar, FAC 500 mg/L, substrate 300 mg/L, 37° C. 18 h in air
[19] = tested on: Steptococcus pyogenes NCTC 8306; experiment: Agar plate multi-point inoculation, colour; conditions: Columbia agar, FAC 500 mg/L, substrate 300 mg/L, 37° C. 18 h in air
[20] = tested on: Candida glabrata NCPF 3943; experiment: Agar plate multi-point inoculation, colour; conditions: Columbia agar, FAC 500 mg/L, substrate 300 mg/L, 37° C. 18 h in air
[21] = tested on: Candida albicans ATCC 90028; conditions: Columbia agar, FAC 500 mg/L, substrate 300 mg/L, 37° C. 18 h in air
[22] = tested on: clinical isolates of E. coli; experiment: Glucuronide sensitivity screen, agar plates (CPS ID 3 or Columbia agar)
E. cloacae = experiment: Glucuronide screen, agar plates (CPS ID 3 or Columbia agar)
E. faecium NCTC 7171 = experiment: as above; conditions: E. faecium NCTC 7171, agar
E. faecalis NCTC 775 = experiment: as above; conditions: E. faecalis NCTC 775, agar
[23] = 100 E. coli strains, agar, 18 h incubation

SMILES: OC[C@H]1O[C@@H](Oc2cc3cc(Br)c(Br)cc3cc2O)C(O)C1O (stereo partly drawn) [Compound 23, 6,7-Dibromo-DHN-β-D-ribofuranoside]
- Colour [1]: +
- Colour [2]: −
- Colour [3]: ++
- Colour [4]: −
- Colour [5]: −
- growth of Gram-positive bacteria [6]: mainly suppressed
- Colour [7]: −
- Colour [8]: −
- Colour [9]: ++
- Colour [10]: ++
- colour (hue) after hydrolysis (range of microorganisms): largely discrete red-brown or maroon colonies
- Colour [11]: −
- Colour [12]: ++
- Colour [13]: −
- Colour [14]: ++
- Colour [15]: −
- Colour [16]: −
- Colour [17]: −
- Colour [18]: +/−
- Colour [19]: −
- Colour [20]: −
- Colour [21]: −

SMILES: O=C(O)[C@H]1O[C@@H](Oc2c[nH]c3cc(Cl)ccc23)[C@H](O)[C@@H](O)[C@@H]1O [Rose-β-D-glucuronide CHA salt, 6-chloro-3-indolyl β-D-glucuronide]
- % Sensitivity [22]: 81%
- Negative strains [22, 23]: 19
- Positive strains [22, 23]: 81
- Colour ([22]; E. coli 260262P, agar): Red
- Colour ([22]; E. coli 260280Z, agar): Red
- Colour ([22]; E. coli 260310H, agar): Red
- Colour ([22]; E. coli 260313A, agar): −
- Colour ([22]; E. coli 260316T, agar): −
- Colour ([22]; E. coli 260327V, agar): Red
- Colour ([22]; E. coli 260330Y, agar): Red
- Colour ([22]; E. coli 260333P, agar): −
- Colour ([22]; E. coli 260345F, agar): Red
- Colour ([22]; E. coli 260348K, agar): Red
- Colour ([22]; E. coli 260354W, agar): Red
- Colour ([22]; E. coli 260364H, agar): −
- Colour ([22]; E. coli 260370C, agar): Red
- Colour ([22]; E. coli 260375E, agar): Red
- Colour ([22]; E. coli 260390B, agar): −
- Colour ([22]; E. coli 260396Z, agar): Red
- Colour ([22]; E. coli 260398Q, agar): Red
- Colour ([22]; E. coli 260399E, agar): Red
- Colour ([22]; E. coli 260400N, agar): −
- Colour ([22]; E. coli 260401Q, agar): Red
- Colour ([22]; E. coli 260402H, agar): Red
- Colour ([22]; E. coli 260404W, agar): Red
- Colour ([22]; E. coli 260405P, agar): Red
- Colour ([22]; E. coli 260406A, agar): −
- Colour ([22]; E. coli 260406Y, agar): Red
- Colour ([22]; E. coli 260407F, agar): Red
- Colour ([22]; E. coli 260408C, agar): Red
- Colour ([22]; E. coli 260411Z, agar): Red
- Colour ([22]; E. coli 260412Q, agar): Red
- Colour ([22]; E. coli 260414H, agar): Red
- Colour ([22]; E. coli 260415Y, agar): Red
- Colour ([22]; E. coli 260416W, agar): −
- Colour ([22]; E. coli 260417P, agar): Red
- Colour ([22]; E. coli 260422Y, agar): Red
- Colour ([22]; E. coli 260424P, agar): Red
- Colour ([22]; E. coli 260425A, agar): Red
- Colour ([22]; E. coli 260426F, agar): Red
- Colour ([22]; E. coli 260428T, agar): Red
- Colour ([22]; E. coli 260431N, agar): Red
- Colour ([22]; E. coli 260432E, agar): Red
- Colour ([22]; E. coli 260433H, agar): Red
- Colour ([22]; E. coli 260434Y, agar): Red
- Colour ([22]; E. coli 260435W, agar): Red
- Colour ([22]; E. coli 260436P, agar): Red
- Colour ([22]; E. coli 260437A, agar): Tr. Red
- Colour ([22]; E. coli 260438F, agar): Red
- Colour ([22]; E. coli 260439C, agar): Red
- Colour ([22]; E. coli 260440S, agar): Red
- Colour ([22]; E. coli 260441G, agar): Red
- Colour ([22]; E. coli 260458Y, agar): Red
- Colour ([22]; E. coli 260459W, agar): Red
- Colour ([22]; E. coli 260463D, agar): Red
- Colour ([22]; E. coli 260464G, agar): Red
- Colour ([22]; E. coli 260471B, agar): −
- Colour ([22]; E. coli 260478N, agar): −
- Colour ([22]; E. coli 260479Q, agar): Red
- Colour ([22]; E. coli 260480M, agar): Red
- Colour ([22]; E. coli 260481J, agar): Red
- Colour ([22]; E. coli 260483R, agar): −
- Colour ([22]; E. coli 260485D, agar): Red
- Colour ([22]; E. coli 260486L, agar): Red
- Colour ([22]; E. coli 260492J, agar): Red
- Colour ([22]; E. coli 260494B, agar): Red
- Colour ([22]; E. coli 260495R, agar): −
- Colour ([22]; E. coli 260497D, agar): Red
- Colour ([22]; E. coli 260502G, agar): Red
- Colour ([22]; E. coli 260503Z, agar): Red
- Colour ([22]; E. coli 260504N, agar): Red
- Colour ([22]; E. coli 260505Q, agar): −
- Colour ([22]; E. coli 260506E, agar): Red
- Colour ([22]; E. coli 260508Y, agar): Red
- Colour ([22]; E. coli 260509W, agar): Red
- Colour ([22]; E. coli 260510R, agar): Red
- Colour ([22]; E. coli 260511X, agar): Red
- Colour ([22]; E. coli 260514G, agar): −
- Colour ([22]; E. coli 260515Z, agar): Red
- Colour ([22]; E. coli 260521S, agar): Red
- Colour ([22]; E. coli 260522Z, agar): Red
- Colour ([22]; E. coli 260532S, agar): Red
- Colour ([22]; E. coli 260533G, agar): Red
- Colour ([22]; E. coli 260536Q, agar): Red
- Colour ([22]; E. coli 260537E, agar): −
- Colour ([22]; E. coli 260538H, agar): −
- Colour ([22]; E. coli 260539Y, agar): Red
- Colour ([22]; E. coli 260541R, agar): Red
- Colour ([22]; E. coli 260545G, agar): Red
- Colour ([22]; E. coli 260547N, agar): Red
- Colour ([22]; E. coli 260548Q, agar): Red
- Colour ([22]; E. coli 260549E, agar): Red
- Colour ([22]; E. coli 260553X, agar): −
- Colour ([22]; E. coli 260554D, agar): Red
- Colour ([22]; E. coli 260555L, agar): Red
- Colour ([22]; E. coli 260563B, agar): Red
- Colour ([22]; E. coli 260564R, agar): Red
- Colour ([22]; E. coli 260578D, agar): −
- Colour ([22]; E. coli 2603121P, agar): −
- Colour (E. cloacae; E. cloacae 260329R, agar): −
- Colour (E. cloacae; E. cloacae NCTC 11936, agar): −
- Colour (E. faecium NCTC 7171): −
- Colour (E. faecalis NCTC 775): −
